The nature of data set [1]: Clearance in human hepatic microsomes at 1 umol/L incubated for 20 mins in presence of NADPH generating system by HPLC-UV analysis. The data set is classed as ADME, Microsome. Particulars: liver microsomes, dose 1 µmol/L, read-out: CLH. A general note: Liver microsomes are vesicles of endoplasmic reticulum, rich in cytochrome P450 enzymes.
Data set [2] concerns the target T1, Melatonin receptor type 1B (Homo sapiens, UniProt P49286).
T1 sequence (P49286 whole entry): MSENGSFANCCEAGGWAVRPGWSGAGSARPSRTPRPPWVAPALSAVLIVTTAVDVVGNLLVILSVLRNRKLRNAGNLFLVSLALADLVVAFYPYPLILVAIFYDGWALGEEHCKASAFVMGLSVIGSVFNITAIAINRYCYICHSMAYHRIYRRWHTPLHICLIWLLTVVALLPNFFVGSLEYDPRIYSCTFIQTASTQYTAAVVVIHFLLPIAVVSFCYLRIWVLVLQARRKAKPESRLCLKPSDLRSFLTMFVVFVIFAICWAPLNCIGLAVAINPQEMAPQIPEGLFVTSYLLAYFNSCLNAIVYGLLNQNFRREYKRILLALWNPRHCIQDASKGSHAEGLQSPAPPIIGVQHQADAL
Description: Displacement of 2-[125l]-lodomelatonin from human MT2 expressed in CHO cell membrane incubated for 150 mins by radioligand binding assay. It is filed as cell membranes.

Data set [3] in a line: Clearance in rat hepatic microsomes at 1 umol/L incubated for 20 mins in presence of NADPH generating system by HPLC-UV analysis. Particulars: liver microsomes, dose 1 µmol/L, read-out: CLH. It is filed as ADME, Microsome.
Data set [4] concerns the target T2, Melatonin receptor type 1A (Homo sapiens, UniProt P48039). Description: Displacement of 2-[125l]-lodomelatonin from human MT1 expressed in CHO cell membrane incubated for 150 mins by radioligand binding assay. It is filed as cell membranes.
Data set [5] is described as follows: Oral bioavailability in Sprague-Dawley rat at 1 mg/kg administered as casette dosing by LC/MS/MS analysis. The data set is classed as ADME, organism-based. Particulars: in vivo.
Data set [6] has as its target T3, Melatonin receptor type 1B (Homo sapiens) (UniProt P49286).
T3 sequence (whole entry): T1 sequence (P49286 whole entry)
The data set is described as follows: Displacement of 2-[125l]-lodomelatonin from human MT2 expressed in CHO cell membrane at 100 nM incubated for 150 mins by radioligand binding assay relative to control. The data set is classed as cell membranes.

The target in data set [7] is T2, Melatonin receptor type 1A. The data set is described as follows: Binding affinity to human MT1 expressed in CHO cells. It is filed as cell-based.
Data set [8] in a line: Drug concentration in Sprague-Dawley rat brain at 1 mg/kg, po after 60 mins by LC/MS/MS analysis. It is filed as ADME, organism-based. Particulars: read-out: Ct.
Data set [9] can be described thus: Ratio of drug concentration in brain to plasma in Sprague-Dawley rat at 1 mg/kg, po after 60 mins by LC/MS/MS analysis. It is filed as ADME, organism-based. Particulars: read-out: BPR.
Data set [10] is described as follows: Oral bioavailability in Sprague-Dawley rat at 1 mg/kg by LC/MS/MS analysis. It is filed as ADME, organism-based. Particulars: in vivo.
In data set [11] the target is T1, Melatonin receptor type 1B. Description: Binding affinity to human MT2 expressed in CHO cells. The data set is classed as cell-based.
Data set [12] in a line: Drug concentration in Sprague-Dawley rat plasma at 1 mg/kg, po after 60 mins by LC/MS/MS analysis. The data set is classed as ADME, organism-based.
Data set [13] concerns the target T2, Melatonin receptor type 1A. The data set is described as follows: Displacement of 2-[125l]-lodomelatonin from human MT1 expressed in CHO cell membrane at 100 nM incubated for 150 mins by radioligand binding assay relative to control. The data set is classed as cell membranes.
The nature of data set [14]: Drug concentration in Sprague-Dawley rat plasma at 0.1 mg/kg, po after 60 mins by LC/MS/MS analysis. The data set is classed as ADME, organism-based.
In another data set the test system is Felis catus. The data set is described as follows: Hypnotic activity in cats assessed as increase in total sleep time at 10 mg/kg, po after 8 hrs by EEG analysis. The data set is classed as functional, organism-based.
The target in data set [15] is T1, Melatonin receptor type 1B. Description: Agonist activity at human MT2 expressed in CHO-K1 cells assessed as inhibition of forskolin-induced cAMP accumulation incubated for 30 mins by AlphaScreen assay. The data set is classed as functional, cell-based. A general note: cAMP levels reflect the balance of adenylyl cyclase and phosphodiesterase activity.
Data set [16] has as its target T2, Melatonin receptor type 1A. Description: Agonist activity at human MT1 expressed in CHO-K1 cells assessed as inhibition of forskolin-induced cAMP accumulation incubated for 30 mins by AlphaScreen assay. The data set is classed as functional, cell-based.
Data set [17] in a line: Ratio of drug concentration in brain to plasma in Sprague-Dawley rat at 0.1 mg/kg, po after 60 mins by LC/MS/MS analysis. It is filed as ADME, organism-based. Particulars: read-out: BPR.
Data set [18] can be described thus: Drug concentration in Sprague-Dawley rat brain at 0.1 mg/kg, po after 60 mins by LC/MS/MS analysis. Particulars: read-out: Ct. It is filed as ADME, organism-based.

The source made the active and inactive calls. The rule behind the calls is not given here.

T2 sequence (P48039 whole entry): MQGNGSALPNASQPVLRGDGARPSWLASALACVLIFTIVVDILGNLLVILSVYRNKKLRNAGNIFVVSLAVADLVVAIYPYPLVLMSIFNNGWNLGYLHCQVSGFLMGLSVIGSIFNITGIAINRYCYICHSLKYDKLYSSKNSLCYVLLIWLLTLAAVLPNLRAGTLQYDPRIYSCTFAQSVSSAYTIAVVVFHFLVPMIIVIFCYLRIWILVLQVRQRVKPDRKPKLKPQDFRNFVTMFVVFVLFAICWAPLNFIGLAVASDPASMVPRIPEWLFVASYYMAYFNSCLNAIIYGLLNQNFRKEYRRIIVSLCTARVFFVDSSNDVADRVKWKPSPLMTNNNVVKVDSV

For the compound `CCC(=O)NCCC1CCc2ccn3nc(C)cc3c21` (centres undefined), the microsomal CLint at 1 µM in data set [1] was determined as 20 µL/min/mg; in data set [3], 84 µL/min/mg. The inhibition constant Ki in [2] is 0.95 nM; in [4] it was 0.17 nM.

Regarding `CC(=O)NCCC1CCc2ccc3nc(Cc4ccccc4)oc3c21` (centres undefined), the inhibition constant Ki in data set [2] is 0.12 nM; in [4], 4.4 nM.

On to `CC(=O)NCC[C@H]1CCc2ccc3nc(C)oc3c21`, for which the inhibition constant Ki came out at 6.1 nM in data set [2] and 23 nM in [4].

`CC(=O)NCCC1CCc2ccn3nc(C)cc3c21` (centres undefined) displayed a bioavailability in data set [5] of 14.3%. In addition, the values for the microsomal CLint at 1 µM in data set [1] and in [3] were 14 µL/min/mg and 42 µL/min/mg, respectively. Further, the values for the inhibition constant Ki in data set [2] and in [4] were 1.4 nM and 0.2 nM, respectively.

For `CC(=O)NCCC1CCc2ccc3ncoc3c21` (centres undefined), the Ki in data set [2] was determined as 0.073 nM; in data set [4], 0.45 nM.

Compound `CC(=O)NCCC1CCc2ccc3nc(C)sc3c21` (centres undefined) returned a bioavailability in data set [5] of 4.8%. Besides, the microsomal CLint at 1 µM in data set [1] was determined as 45 µL/min/mg; in data set [3], 188 µL/min/mg. In addition, the Ki in data set [2] amounted to 0.086 nM; in data set [4] it was 0.037 nM.

Take `CC(=O)NCCC1CCc2ccn3nc(C)c(C)c3c21` (centres undefined): the Ki in data set [4] was determined as 9.3 nM. Also, in data set [6], the inhibition is less than 50%.

As for `CC(=O)NCCC1CCc2ccc3nc(-c4ccccc4)oc3c21` (centres undefined), the figures for the inhibition constant (Ki) in data set [2] and in [4] were 0.23 nM and 1.3 nM, respectively.

Take `CC(=O)NCCC1CCc2ccc3nc(CO)oc3c21` (centres undefined): the Ki in data set [2] was 1.1 nM; in data set [4] it was 1.2 nM.

Consider `CCc1nc2ccc3c(c2o1)C(CCNC(C)=O)CC3` (centres undefined), for which the figures for the Ki in data set [2] and in data set [4] were 0.16 nM and 0.22 nM, respectively.

In turn, `CCC(=O)NCCC1CCc2ccc3nc(C)sc3c21` (centres undefined) showed a bioavailability in data set [5] of 3.2%. Besides, the microsomal CLint at 1 µM in data set [1] turned out to be 41 µL/min/mg; in [3], 379 µL/min/mg. The Ki amounted to 0.058 nM in data set [2] and 0.027 nM in data set [4].

`CC(=O)NCCC1CCc2ccc3nc(C)oc3c21` (racemic) returned a bioavailability in data set [5] of 18.5%. Besides, the Ki in data set [2] was 0.13 nM; in data set [4], 0.067 nM. Besides, the microsomal CLint at 1 µM in data set [3] was 34 µL/min/mg.

Turning to `COc1nc2ccc3c(c2o1)C(CCNC(C)=O)CC3` (centres undefined), the inhibitory constant (Ki) in data set [2] turned out to be 0.15 nM; in data set [4], 0.45 nM.

In the case of `CC(=O)NCCC1CCc2ccc3nc(C4CC4)oc3c21` (centres undefined), the results for the Ki in data set [2] and in data set [4] were 0.15 nM and 0.39 nM, respectively.

Regarding `CCC(=O)NCC[C@@H]1CCc2ccc3c(c21)CCO3` [RAMELTEON], the Ki stood at 0.014 nM in data set [7] and 0.112 nM in data set [11]. Moreover, the concentration at 1 h in [8] was 17 ng/g; in [12] it was 15 ng/mL. In addition, the microsomal CLint at 1 µM turned out to be 51 µL/min/mg in data set [1] and 126 µL/min/mg in data set [3]. Besides, the Kp at 1 h in data set [9] was determined as 1.1. The same compound showed a bioavailability in data set [10] of 8.5%.

For the compound `CCC(=O)NCCC1CCc2ccc3nn(C)cc3c21` (centres undefined), the bioavailability in data set [5] is 13.7%. Further, the figures for the microsomal CLint at 1 µM in data set [1] and in data set [3] were 23 µL/min/mg and 79 µL/min/mg, respectively. In addition, the inhibition constant (Ki) was determined as 0.35 nM in data set [2] and 0.3 nM in [4].

Take `CCOC(=O)c1c(C)nn2ccc3c(c12)C(CCNC(C)=O)CC3` (centres undefined): the inhibition in data set [6] and in data set [13] was less than 50% throughout.

The compound `CCC(=O)NCCC1CCc2ccc3nc(C)oc3c21` (centres undefined) gave a bioavailability in data set [5] of 6.8%. In addition, the results for the microsomal CLint at 1 µM in [1] and in data set [3] were 29 µL/min/mg and 96 µL/min/mg, respectively. In addition, the inhibitory constant (Ki) in data set [2] amounted to 0.088 nM; in data set [4], 0.067 nM.

Regarding `CC(=O)NCCC1CCc2ccc3nn(C)cc3c21` (centres undefined), the bioavailability in data set [5] amounted to 20.9%. Further, the microsomal CLint at 1 µM stood at 5 µL/min/mg in data set [1] and 44 µL/min/mg in data set [3]. Besides, the inhibition constant Ki in data set [2] worked out at 0.75 nM; in data set [4] it was 0.35 nM.

With `CC(=O)NCC[C@@H]1CCc2ccc3nc(C)oc3c21`, the concentration at 1 h in data set [14] came out at 2.9 ng/mL; in data set [18], 1.4 ng/g. In the data set with Felis catus, the outcome was Active. Besides, the results for the Ki in [2] and in data set [4] were 0.07 nM and 0.031 nM, respectively. Besides, the EC50 stood at 0.51 nM in [15] and 0.015 nM in data set [16]. Further, the Kp at 1 h in [17] was found to be 0.48.

As a reminder, the Ki is a dissociation constant, usually derived from enzyme kinetics or from competition with a known ligand. Read a low Ki as tighter binding. For orientation: bioavailability means the share of a dose that reaches the circulation, judged against a reference dose that is usually intravenous. A low value points to little systemic uptake. As usually defined, the inhibition is the percentage by which the read-out fell short of the control. Low values mean a weak effect, high ones a strong effect. As usually defined, the EC50 is the concentration needed to bring the measured effect to its halfway point.

(Values after ChEMBL document CHEMBL4834409 (J Med Chem, 2021).)
